Source: patent US20060069132A1, “Azolecarboxamide herbicides” (priority 2004, published 2006)

Experiments:
large crabgrass = assay: Test B pre-/postemergence herbicide test; assay type: in vivo, Digitaria sanguinalis; conditions: for Plant response rating (0 to 100 scale), Crabgrass, Large: 0 is no effect, preemergence
Procedure, shortened: (§1)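 Seeds were planted and treated preemergence with compounds formulated in a non-phytotoxic solvent mixture containing surfactant, while plants at the 1- to 4-leaf stage (2 to 18 cm) received postemergence sprays. Flooded paddy plants were grown to the 2-leaf stage. After 13 to 15 days in a greenhouse, injury was visually rated 0–100 against untreated controls.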

velvetleaf = assay: Test B pre-/postemergence herbicide test; assay type: in vivo, Abutilon theophrasti; conditions: for Plant response rating (0 to 100 scale), Velvetleaf: 0 is no effect, 100 is complete control, preemergence
Procedure, shortened: as §1

barnyardgrass [1] = assay: Test B flooded paddy test; assay type: in vivo, Echinochloa crus-galli; conditions: scale 0 to 100 (0 no effect, 100 complete control)
Procedure, shortened: (§2)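 Plants grow to 1- to 4-leaf stage (2–18 cm) for postemergence spraying, or to 2-leaf stage for the paddy test. Formulated compound is applied. Greenhouse holding lasts 13–15 days. Response is scored visually relative to controls, 0 no effect to 100 complete control; a dash means no result.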

wild oat = assay: Test B postemergence herbicide test; assay type: in vivo, Avena fatua
Procedure, shortened: (§3)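 After treating 2-leaf paddy plants or 2–18 cm postemergence plants (1 to 4 leaves) with formulated chemical, researchers kept them in a greenhouse for 13–15 days. Effects were judged visually versus controls: 0 indicates none, 100 total control.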

giant foxtail = assay: Test B pre-/postemergence herbicide test; assay type: in vivo, Setaria faberi; conditions: for Plant response rating (0 to 100 scale), Foxtail, Giant: 0 is no effect, preemergence
Procedure, shortened: as §1

ducksalad = assay: Test B flooded paddy test; assay type: in vivo, Heteranthera limosa; conditions: scale 0 to 100 (0 no effect, 100 complete control)
Procedure, shortened: as §2

Surinam grass = assay: Test B pre-/postemergence herbicide test; assay type: in vivo, Urochloa decumbens; conditions: for Plant response rating (0 to 100 scale), Surinam Grass: 0 is no effect, 100 is complete control, preemergence
Procedure, shortened: as §1

wheat = assay: Test B postemergence herbicide test; assay type: in vivo, Triticum aestivum; design: key to Wheat plant response rating: 0 = no effect, 100 = complete control
Procedure, shortened: as §3

barnyardgrass [2] = assay: Test B pre-/postemergence herbicide test; assay type: in vivo, Echinochloa crus-galli; conditions: for Plant response rating (0 to 100 scale), Barnyardgrass: 0 is no effect, preemergence
Procedure, shortened: (§4)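 Species tested were Echinochloa crus-galli, Ipomoea coccinea, Xanthium strumarium and Oryza sativa, treated both before emergence and at the 1- to 4-leaf stage; rice and barnyardgrass were also tested under flooding at 2 leaves. Greenhouse incubation lasted 13–15 days before visual 0–100 scoring.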

pigweed = assay: Test B pre-/postemergence herbicide test; assay type: in vivo, Amaranthus retroflexus; conditions: for Plant response rating (0 to 100 scale), Pigweed: 0 is no effect, 100 is complete control, preemergence
Procedure, shortened: as §1

rice = assay: Test B flooded paddy test; assay type: in vivo, Oryza sativa; conditions: scale 0 to 100 (0 no effect, 100 complete control)
Procedure, shortened: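 Visual ratings, 0 (no effect) to 100 (complete control), made versus controls after 13–15 d greenhouse. Paddy plants treated at 2-leaf stage; postemergence plants at 1- to 4-leaf stage, 2–18 cm tall.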

lambsquarters = assay: Test B pre-/postemergence herbicide test; assay type: in vivo, Chenopodium album; conditions: for Plant response rating (0 to 100 scale), Lambsquarters: 0 is no effect, 100 is complete control, preemergence
Procedure, shortened: as §1

[3] = system: small flower umbrella sedge; assay: Test B flooded paddy test; assay type: in vivo, Cyperus difformis; conditions: scale 0 to 100 (0 no effect, 100 complete control)
Procedure, shortened: as §2

morningglory = assay: Test B pre-/postemergence herbicide test; assay type: in vivo, Ipomoea coccinea; conditions: for Plant response rating (0 to 100 scale), Morningglory: 0 is no effect, 100 is complete control, preemergence
Procedure, shortened: as §4

corn = assay: Test B pre-/postemergence herbicide test; assay type: in vivo, Zea mays; conditions: for Plant response rating (0 to 100 scale), Corn: 0 is no effect, preemergence
Procedure, shortened: as §1

blackgrass = assay: Test B postemergence herbicide test; assay type: in vivo, Alopecurus myosuroides
Procedure, shortened: as §2

cocklebur = assay: Test B pre-/postemergence herbicide test; assay type: in vivo, Xanthium strumarium; conditions: for Plant response rating (0 to 100 scale), Cocklebur: 0 is no effect, preemergence
Procedure, shortened: as §4

[4] = 125 g ai/ha, 100 is complete control
[5] = Postemergence, 500 g ai/ha, scale 0 (no effect) to 100 (complete control)
[6] = postemergence, 125 g ai/ha, scale 0 to 100
[7] = 500 g ai/ha, scale 0 to 100, 0 no effect, 100 complete control, preemergence
[8] = Postemergence, 125 g ai/ha, scale 0 (no effect) to 100 (complete control)
[9] = 125 g ai/ha, visual rating, scale 0 (no effect) to 100 (complete control), postemergence
[10] = postemergence, 500 g ai/ha, scale 0 to 100, 0 is no effect, 100 is complete control

## CC(C)(C)n1nc(Br)c(C(=O)Nc2cccc(C(=O)N3CC=CC3)c2)n1 [Compound 433]
Large crabgrass; [4]
  Plant response rating (0 to 100 scale), Crabgrass, Large: 90
Large crabgrass; [5]
  Crabgrass, Large plant response rating: 30
Large crabgrass; [6]
  Crabgrass, Large plant response rating: 20
velvetleaf; 125 g ai/ha
  Plant response rating (0 to 100 scale), Velvetleaf: 40
velvetleaf; [5]
  Velvetleaf plant response rating: 50
velvetleaf; [6]
  Velvetleaf plant response rating: 10
Barnyardgrass [1]; 125 g ai/ha
  Barnyardgrass plant response rating: 30
Wild oat; [5]
  Oat, Wild plant response rating: 60
Wild oat; [6]
  Oat, Wild plant response rating: 50
Giant foxtail; [4]
  Plant response rating (0 to 100 scale), Foxtail, Giant: 60
Giant foxtail; [5]
  Foxtail, Giant plant response rating: 40
Giant foxtail; [6]
  Foxtail, Giant plant response rating: 30
ducksalad; 125 g ai/ha
  Ducksalad plant response rating: 60
Surinam grass; 125 g ai/ha
  Plant response rating (0 to 100 scale), Surinam Grass: 20
Surinam grass; [5]
  Surinam Grass plant response rating: 30
Surinam grass; [6]
  Surinam Grass plant response rating: 20
wheat; [7]
  Wheat plant response rating: 50
wheat; [5]
  Wheat plant response rating: 50
wheat; [6]
  Wheat plant response rating: 40
Barnyardgrass [2]; [4]
  Plant response rating (0 to 100 scale), Barnyardgrass: 50
Barnyardgrass [2]; [8]
  Barnyardgrass plant response rating: 10
Barnyardgrass [2]; [5]
  Barnyardgrass plant response rating: 20
pigweed; 125 g ai/ha
  Plant response rating (0 to 100 scale), Pigweed: 100
pigweed; [5]
  Pigweed plant response rating: 70
pigweed; [6]
  Pigweed plant response rating: 50
rice; 125 g ai/ha
  Rice plant response rating: 0
lambsquarters; 125 g ai/ha
  Plant response rating (0 to 100 scale), Lambsquarters: 70
lambsquarters; [5]
  Lambsquarters plant response rating: 80
lambsquarters; [6]
  Lambsquarters plant response rating: 40
[3]; 125 g ai/ha
  Sedge, Umbrella plant response rating: 70
morningglory; 125 g ai/ha
  Plant response rating (0 to 100 scale), Morningglory: 40
morningglory; [5]
  Morningglory plant response rating: 80
morningglory; [6]
  Morningglory plant response rating: 50
corn; [4]
  Plant response rating (0 to 100 scale), Corn: 10
corn; [5]
  Corn plant response rating: 30
corn; [6]
  Corn plant response rating: 20
blackgrass; [5]
  Blackgrass plant response rating: 40
blackgrass; [6]
  Blackgrass plant response rating: 30
cocklebur; [4]
  Plant response rating (0 to 100 scale), Cocklebur: 10
cocklebur; [5]
  Cocklebur plant response rating: 90
cocklebur; [6]
  Cocklebur plant response rating: 40

## C=CCN(CC=C)C(=O)c1ccc(F)c(NC(=O)c2nn(C(C)(C)C)nc2CC)c1 [Compound 387]
Large crabgrass; [4]
  Plant response rating (0 to 100 scale), Crabgrass, Large: 0
Large crabgrass; [9]
  Crabgrass, Large plant response rating: 0
Large crabgrass; [10]
  Crabgrass, Large plant response rating: 0
velvetleaf; 125 g ai/ha
  Plant response rating (0 to 100 scale), Velvetleaf: 0
velvetleaf; [9]
  Velvetleaf plant response rating: 0
velvetleaf; [5]
  Velvetleaf plant response rating: 10
Barnyardgrass [1]; 1000 g ai/ha
  Barnyardgrass plant response rating: 0
Wild oat; [9]
  Oat, Wild plant response rating: 0
Wild oat; [5]
  Oat, Wild plant response rating: 30
Giant foxtail; [4]
  Plant response rating (0 to 100 scale), Foxtail, Giant: 0
Giant foxtail; [9]
  Foxtail, Giant plant response rating: 0
Giant foxtail; [10]
  Foxtail, Giant plant response rating: 20
ducksalad; 1000 g ai/ha
  Ducksalad plant response rating: 0
Surinam grass; 125 g ai/ha
  Plant response rating (0 to 100 scale), Surinam Grass: 0
Surinam grass; [9]
  Surinam Grass plant response rating: 0
Surinam grass; [5]
  Surinam Grass plant response rating: 0
wheat; [9]
  Wheat plant response rating: 0
wheat; [7]
  Wheat plant response rating: 0
wheat; [5]
  Wheat plant response rating: 10
Barnyardgrass [2]; [4]
  Plant response rating (0 to 100 scale), Barnyardgrass: 0
Barnyardgrass [2]; [9]
  Barnyardgrass plant response rating: 0
Barnyardgrass [2]; [10]
  Barnyardgrass plant response rating: 0
pigweed; 125 g ai/ha
  Plant response rating (0 to 100 scale), Pigweed: 0
pigweed; [9]
  Pigweed plant response rating: 20
pigweed; [5]
  Pigweed plant response rating: 40
rice; 1000 g ai/ha
  Rice plant response rating: 0
lambsquarters; 125 g ai/ha
  Plant response rating (0 to 100 scale), Lambsquarters: 0
lambsquarters; [9]
  Lambsquarters plant response rating: 20
lambsquarters; [5]
  Lambsquarters plant response rating: 20
[3]; 1000 g ai/ha
  Sedge, Umbrella plant response rating: 0
morningglory; 125 g ai/ha
  Plant response rating (0 to 100 scale), Morningglory: 0
morningglory; [9]
  Morningglory plant response rating: 0
morningglory; [5]
  Morningglory plant response rating: 10
corn; [4]
  Plant response rating (0 to 100 scale), Corn: 0
corn; [9]
  Corn plant response rating: 0
corn; [10]
  Corn plant response rating: 0
blackgrass; [9]
  Blackgrass plant response rating: 0
blackgrass; [10]
  Blackgrass plant response rating: 20
cocklebur; [4]
  Plant response rating (0 to 100 scale), Cocklebur: 0
cocklebur; [9]
  Cocklebur plant response rating: 0
cocklebur; [10]
  Cocklebur plant response rating: 20

## C=CCN(C(C)=O)C(=O)c1ccc(F)c(NC(=O)c2cc(C(C)(C)C)nn2CC)c1 [Compound 442]
Large crabgrass; [5]
  Crabgrass, Large plant response rating: 20
Large crabgrass; [6]
  Crabgrass, Large plant response rating: 10
velvetleaf; [5]
  Velvetleaf plant response rating: 30
velvetleaf; [6]
  Velvetleaf plant response rating: 30
Barnyardgrass [1]; 125 g ai/ha
  Barnyardgrass plant response rating: 0
Wild oat; [5]
  Oat, Wild plant response rating: 60
Wild oat; [6]
  Oat, Wild plant response rating: 50
Giant foxtail; [5]
  Foxtail, Giant plant response rating: 20
Giant foxtail; [6]
  Foxtail, Giant plant response rating: 20
ducksalad; 125 g ai/ha
  Ducksalad plant response rating: 10
Surinam grass; [5]
  Surinam Grass plant response rating: 20
Surinam grass; [6]
  Surinam Grass plant response rating: 20
wheat; [7]
  Wheat plant response rating: 70
wheat; [5]
  Wheat plant response rating: 40
wheat; [6]
  Wheat plant response rating: 20
Barnyardgrass [2]; [8]
  Barnyardgrass plant response rating: 10
Barnyardgrass [2]; [5]
  Barnyardgrass plant response rating: 20
pigweed; [5]
  Pigweed plant response rating: 70
pigweed; [6]
  Pigweed plant response rating: 50
rice; 125 g ai/ha
  Rice plant response rating: 30
lambsquarters; [5]
  Lambsquarters plant response rating: 70
lambsquarters; [6]
  Lambsquarters plant response rating: 40
[3]; 125 g ai/ha
  Sedge, Umbrella plant response rating: 70
morningglory; [5]
  Morningglory plant response rating: 30
morningglory; [6]
  Morningglory plant response rating: 20
corn; [5]
  Corn plant response rating: 30
corn; [6]
  Corn plant response rating: 30
blackgrass; [5]
  Blackgrass plant response rating: 30
blackgrass; [6]
  Blackgrass plant response rating: 30
cocklebur; [5]
  Cocklebur plant response rating: 100
cocklebur; [6]
  Cocklebur plant response rating: 80
